This is an account of results in patent US7767232B2, “Control of nitric oxide bioactivity by perfluorocarbons” (New York University, priority 2002, dated 2010).

In assay [1] the test system is rats. The experiment in a line: Plasma low molecular weight S-nitrosothiols and mean arterial pressure after Perftoran and thiols in rats. To be noted: cysteine 1 mg/kg intravenously, without perfluorocarbon. The format is in vivo, rat. The method, then:
Plasma low molecular weight-S-nitrosothiols were determined using CuCl2 to displace NO from thiol residues followed by electrochemical detection of released NO (Rafikova et al., 2002). The concentration of CuCl2, 40 μM, was selected to decompose predominantly low molecular weight S-nitrosothiols.

For assay [2], the system named is rats. Kind of assay: Relation of perfluorocarbon hemodynamic effects to NO: L-NAME and potassium nitrite treated rats, mean arterial pressure. The class given is in vivo, rat.
Another assay relates to nitrosothiols formation. Kind of assay: Effect of α-dihydrolipoic acid on nitrosothiol formation and vasorelaxation in the presence of perfluorocarbons. To be noted: FIG. 8, in vitro and in vivo. From the text: If delivered at small concentrations, i.e., less than 1% v/v, and in conjunction with low molecular weight nucleophiles, such as thiols or mixtures of thiols, perfluorocarbons act as a powerful vasodilator rather than as a vasoconstrictor. NO^+ originated from N2O3 in the perfluorocarbon micelles can be transferred to various low molecular weight nucleophiles, exemplified as RSH, by two possible pathways, as shown in FIG. 7. Direct attack on RSH is possible at the surface of perfluorocarbon micelles or inside the micelles, if the RSH were hydrophobic enough to enter it, as shown in pathway I of FIG. 7. Additionally, NO can reach various RSH via a transnitrosation reaction by using a lipophilic low molecular weight “shuttle”, as shown in FIG. 7. One example of such an NO shuttle is α-lipoic acid (α-LA), which is normally present in the circulation at low (micromolar) concentrations (Keipert, 2001). α-lipoic acid has a highly hydrophobic tail (FIG. 7A), which can readily penetrate the perfluorocarbon micelle where it is nitrosated. Since both SH groups of α-dihydro-lipoic acid are located next to each other, upon nitrosation they would almost immediately form an S-S adduct and release NO^+. […]

Regarding `N[C@@H](CS)C(=O)O` [cysteine, L-cysteine], in the assay on rats [1], the “effect on blood pressure” value is given as “virtually no effect” and the “effect on plasma low molecular weight S-nitrosothiols” value is “virtually no effect”.

As to `O=N[O-].[K+]` [potassium nitrite], the “effect on mean arterial pressure after L-NAME” value in the assay on rats [2] (1 mg/kg potassium nitrite about 90 minutes after L-NAME) is on record as “partially restored mean arterial pressure”. Further, the “mean arterial pressure above the baseline” value in the assay on rats [2] (nitrite-treated (L-NAME) rats without Perftoran, same time) is given as “about 24 mmHg”. `O=C(O)CCCC[C@@H](S)CCS` [α-dihydrolipoic acid]: in the assay on nitrosothiols formation, the “effect on formation of nitrosothiols and vasorelaxation” value is reported as “simulating effect”.
